PubChem BioAssay (NCI)
Several values for one entry are separate records, joined by “and”; a condition that tells them apart may be missing. Identical values can stand only once.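 Method: 48-hour compound exposure of cells in 96-well plates, five concentrations, linear interpolation of endpoints. The concentration for 50% growth inhibition is given as GI50. TGI: total growth inhibition.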

What was measured:
Assay in all cases: DTP human tumour cell line panel, 48 h
UACC-62 melanoma = test system: UACC-62 melanoma
SNB-78 CNS = test system: SNB-78 CNS
HCT-15 colon = test system: HCT-15 colon
OVCAR-4 ovarian = test system: OVCAR-4 ovarian
COLO 205 colon = test system: COLO 205 colon
HT29 colon = test system: HT29 colon
SF-268 CNS = test system: SF-268 CNS
K-562 leukemia = test system: K-562 leukemia
NCI-H522 lung = test system: NCI-H522 lung
HCT-116 colon = test system: HCT-116 colon

## COC1=C(C)C(=O)C2=C(C1=O)C1C3CC4=C(C(=O)C(OC)=C(C)C4=O)C(CNC(=O)C(C)=O)N3C(C#N)C(C2)N1C (stereo not given)
UACC-62 melanoma
  GI50: 0.000111 µM
  TGI: 0.000825 µM and 0.0075 µM
SNB-78 CNS
  GI50: 0.0579 nM

## COc1cc(O)c2c(=O)c(O)c(-c3ccc(O)c(O)c3)oc2c1
UACC-62 melanoma
  TGI: > 100 µM
HCT-15 colon
  TGI: > 100 µM
OVCAR-4 ovarian
  TGI: 37.6 µM
COLO 205 colon
  TGI: 32.5 µM
HT29 colon
  TGI: 48.4 µM
SF-268 CNS
  TGI: 73.7 µM
K-562 leukemia
  TGI: > 100 µM
NCI-H522 lung
  TGI: 25.5 µM
HCT-116 colon
  TGI: 45.5 µM

## O=C(c1ccccc1)n1c2ccc(Br)cc2c2nc3ccccc3nc21
UACC-62 melanoma
  TGI: > 100 µM
HCT-15 colon
  TGI: > 100 µM
OVCAR-4 ovarian
  TGI: > 100 µM
COLO 205 colon
  TGI: > 100 µM
HT29 colon
  TGI: > 100 µM
SF-268 CNS
  TGI: > 100 µM
K-562 leukemia
  TGI: > 100 µM
NCI-H522 lung
  TGI: > 100 µM
HCT-116 colon
  TGI: > 100 µM

## N#Cc1c2c(c(Nc3ccc(Cl)cc3)n3c1nc1ccccc13)CCCC2
UACC-62 melanoma
  TGI: > 100 µM
HCT-15 colon
  TGI: > 100 µM
OVCAR-4 ovarian
  TGI: > 96.6 µM
COLO 205 colon
  TGI: > 100 µM
HT29 colon
  TGI: > 100 µM
SF-268 CNS
  TGI: > 100 µM
K-562 leukemia
  TGI: > 100 µM
NCI-H522 lung
  TGI: > 100 µM
HCT-116 colon
  TGI: > 100 µM

## CCOC(=O)c1sc2nc(SC)nc3c2c1NCN3c1ccccc1Cl
UACC-62 melanoma
  TGI: > 100 µM
HCT-15 colon
  TGI: > 100 µM
OVCAR-4 ovarian
  TGI: > 100 µM
COLO 205 colon
  TGI: > 100 µM
HT29 colon
  TGI: > 100 µM
SF-268 CNS
  TGI: > 100 µM
K-562 leukemia
  TGI: > 100 µM
NCI-H522 lung
  TGI: 52.7 µM
HCT-116 colon
  TGI: > 100 µM

## O=C1Cc2c(-c3ccccc3)cc(-c3ccc(Cl)cc3)nc2-c2ccccc2N1
UACC-62 melanoma
  TGI: > 31 µM
HCT-15 colon
  TGI: > 55 µM
OVCAR-4 ovarian
  TGI: 3.82 µM
COLO 205 colon
  TGI: 18 µM
HT29 colon
  TGI: > 46.8 µM
SF-268 CNS
  TGI: 20 µM
K-562 leukemia
  TGI: > 100 µM
NCI-H522 lung
  TGI: 12.8 µM
HCT-116 colon
  TGI: 11.9 µM

## CNC(=O)N(C)C(=O)c1ccccc1C(=O)N(C)C(=O)NC
UACC-62 melanoma
  TGI: > 10 µM
HCT-15 colon
  TGI: > 10 µM
OVCAR-4 ovarian
  TGI: > 10 µM
COLO 205 colon
  TGI: > 10 µM
HT29 colon
  TGI: > 10 µM
SF-268 CNS
  TGI: > 10 µM
K-562 leukemia
  TGI: > 10 µM
NCI-H522 lung
  TGI: > 10 µM
HCT-116 colon
  TGI: > 10 µM

## CC(C)=C[C@@H]1C[C@H](C)[C@H]2CC[C@H](C)[C@H]3C(=O)C(O)=C(C)C(=O)[C@]123
UACC-62 melanoma
  TGI: > 100 µM
HCT-15 colon
  TGI: > 100 µM
OVCAR-4 ovarian
  TGI: > 100 µM
COLO 205 colon
  TGI: > 100 µM
HT29 colon
  TGI: > 100 µM
SF-268 CNS
  TGI: > 100 µM
K-562 leukemia
  TGI: > 100 µM
NCI-H522 lung
  TGI: > 100 µM
HCT-116 colon
  TGI: > 100 µM

## CCOC(=O)c1ccc(-c2cccs2)[nH]1
UACC-62 melanoma
  TGI: > 100 µM
HCT-15 colon
  TGI: > 31.6 µM
OVCAR-4 ovarian
  TGI: > 100 µM
COLO 205 colon
  TGI: > 100 µM
HT29 colon
  TGI: > 100 µM
SF-268 CNS
  TGI: > 100 µM
K-562 leukemia
  TGI: > 100 µM
NCI-H522 lung
  TGI: > 100 µM
HCT-116 colon
  TGI: > 100 µM

## C(/Cc1ccc2c(c1)OCO2)=N\NC1=NCCCCN1
UACC-62 melanoma
  TGI: > 100 µM
HCT-15 colon
  TGI: > 100 µM
OVCAR-4 ovarian
  TGI: > 100 µM
COLO 205 colon
  TGI: > 100 µM
HT29 colon
  TGI: > 100 µM
SF-268 CNS
  TGI: > 100 µM
K-562 leukemia
  TGI: > 100 µM
NCI-H522 lung
  TGI: > 100 µM
HCT-116 colon
  TGI: > 100 µM

## Cn1c(=O)c2c(n(C)c1=O)n1c(=O)c3ccccc3nc1n2C
UACC-62 melanoma
  TGI: > 100 µM
HCT-15 colon
  TGI: > 100 µM
OVCAR-4 ovarian
  TGI: > 100 µM
COLO 205 colon
  TGI: > 100 µM
HT29 colon
  TGI: > 100 µM
SF-268 CNS
  TGI: > 100 µM
K-562 leukemia
  TGI: > 100 µM
NCI-H522 lung
  TGI: > 100 µM
HCT-116 colon
  TGI: > 100 µM

## CCCCCNC(=O)OC1CCn2c1nc1c2C(=O)C(C)=C(N2CC2)C1=O (stereo not given)
UACC-62 melanoma
  TGI: 3.54 µM
HCT-15 colon
  TGI: 4.45 µM
OVCAR-4 ovarian
  TGI: 4.98 µM
COLO 205 colon
  TGI: 2.82 µM
HT29 colon
  TGI: 2.77 µM
SF-268 CNS
  TGI: 4.84 µM
K-562 leukemia
  TGI: 7.75 µM
NCI-H522 lung
  TGI: 3.4 µM
HCT-116 colon
  TGI: 4.33 µM

## Nc1nc2c(ccc3ccccc32)[nH]1
UACC-62 melanoma
  TGI: > 10 µM
HCT-15 colon
  TGI: > 10 µM
OVCAR-4 ovarian
  TGI: > 10 µM
COLO 205 colon
  TGI: > 10 µM
HT29 colon
  TGI: > 10 µM
SF-268 CNS
  TGI: > 10 µM
K-562 leukemia
  TGI: > 10 µM
NCI-H522 lung
  TGI: > 10 µM
HCT-116 colon
  TGI: > 10 µM

## O=P1(C(O)c2ccccc2)N(Cc2ccccc2)[C@@H]2CCCC[C@H]2N1Cc1ccccc1 (stereo not given in full)
UACC-62 melanoma
  TGI: > 100 µM
HCT-15 colon
  TGI: > 100 µM
OVCAR-4 ovarian
  TGI: 53.1 µM
COLO 205 colon
  TGI: 29.1 µM
HT29 colon
  TGI: 46.3 µM
SF-268 CNS
  TGI: 97.1 µM
K-562 leukemia
  TGI: > 100 µM
NCI-H522 lung
  TGI: 63.6 µM
HCT-116 colon
  TGI: > 100 µM

## Nc1c(/C=C/c2cc3cc(C4=NCCN4)ccc3o2)[nH]c2cc(C3=NCCN3)ccc12
UACC-62 melanoma
  TGI: > 100 µM
HCT-15 colon
  TGI: > 100 µM
OVCAR-4 ovarian
  TGI: > 100 µM
COLO 205 colon
  TGI: > 100 µM
HT29 colon
  TGI: > 100 µM
SF-268 CNS
  TGI: > 100 µM
K-562 leukemia
  TGI: > 100 µM
NCI-H522 lung
  TGI: > 100 µM
HCT-116 colon
  TGI: > 100 µM

## Nn1c(=S)[nH]nc(/C=C/c2c(O)ccc3ccccc23)c1=O
UACC-62 melanoma
  TGI: 26.2 µM
HCT-15 colon
  TGI: 17.9 µM
OVCAR-4 ovarian
  TGI: 25 µM
COLO 205 colon
  TGI: 27.7 µM
HT29 colon
  TGI: 21.9 µM
SF-268 CNS
  TGI: 38.6 µM
K-562 leukemia
  TGI: > 100 µM
NCI-H522 lung
  TGI: 16.7 µM
HCT-116 colon
  TGI: 12.5 µM

## CCCCC(C)(C/C=C/[C@@H]1[C@@H](C(O)CCCCCC(=O)OC)C(=O)C[C@H]1O[Si](C)(C)C(C)(C)C)O[Si](C)(C)C (stereo not given in full)
UACC-62 melanoma
  TGI: > 100 µM
HCT-15 colon
  TGI: > 100 µM
OVCAR-4 ovarian
  TGI: > 100 µM
COLO 205 colon
  TGI: > 100 µM
HT29 colon
  TGI: > 100 µM
SF-268 CNS
  TGI: > 100 µM
K-562 leukemia
  TGI: > 100 µM
NCI-H522 lung
  TGI: > 100 µM
HCT-116 colon
  TGI: > 100 µM

## O=C1CSC(c2cccc(Oc3ccccc3)c2)N1c1cc(Cl)ccc1Cl (stereo not given)
UACC-62 melanoma
  TGI: 31.5 µM
HCT-15 colon
  TGI: 58.6 µM
OVCAR-4 ovarian
  TGI: 60.8 µM
COLO 205 colon
  TGI: 90.8 µM
HT29 colon
  TGI: 50.5 µM
SF-268 CNS
  TGI: 39.5 µM
K-562 leukemia
  TGI: 50.1 µM
NCI-H522 lung
  TGI: 41.1 µM
HCT-116 colon
  TGI: 34.4 µM

## FC(F)(Sc1nc2ccccc2[nH]1)c1nc2ccccc2o1
UACC-62 melanoma
  TGI: > 100 µM
HCT-15 colon
  TGI: > 100 µM
OVCAR-4 ovarian
  TGI: > 100 µM
COLO 205 colon
  TGI: > 100 µM
HT29 colon
  TGI: > 100 µM
SF-268 CNS
  TGI: > 100 µM
K-562 leukemia
  TGI: > 100 µM
NCI-H522 lung
  TGI: 31.8 µM
HCT-116 colon
  TGI: > 100 µM
